The values that follow come from patent publication EP0412762A2, “Peptide inhibitors of human papilloma virus protein binding to retinoblastoma gene proteins” (priority 1989, dated 1991).

Assay [1] has as its target T1, binding of the HPV-16 E7 protein to the RBG protein (Homo sapiens, UniProt P06400).
T1 construct: Whole cell lysates of Hela cells were used as a source of human RBG protein; endogenous in cells; host or cells: HeLa whole cell lysate (RB); rabbit reticulocyte lysate, T7 promoter clone (E7)
T1 sequence (P06400 1-928): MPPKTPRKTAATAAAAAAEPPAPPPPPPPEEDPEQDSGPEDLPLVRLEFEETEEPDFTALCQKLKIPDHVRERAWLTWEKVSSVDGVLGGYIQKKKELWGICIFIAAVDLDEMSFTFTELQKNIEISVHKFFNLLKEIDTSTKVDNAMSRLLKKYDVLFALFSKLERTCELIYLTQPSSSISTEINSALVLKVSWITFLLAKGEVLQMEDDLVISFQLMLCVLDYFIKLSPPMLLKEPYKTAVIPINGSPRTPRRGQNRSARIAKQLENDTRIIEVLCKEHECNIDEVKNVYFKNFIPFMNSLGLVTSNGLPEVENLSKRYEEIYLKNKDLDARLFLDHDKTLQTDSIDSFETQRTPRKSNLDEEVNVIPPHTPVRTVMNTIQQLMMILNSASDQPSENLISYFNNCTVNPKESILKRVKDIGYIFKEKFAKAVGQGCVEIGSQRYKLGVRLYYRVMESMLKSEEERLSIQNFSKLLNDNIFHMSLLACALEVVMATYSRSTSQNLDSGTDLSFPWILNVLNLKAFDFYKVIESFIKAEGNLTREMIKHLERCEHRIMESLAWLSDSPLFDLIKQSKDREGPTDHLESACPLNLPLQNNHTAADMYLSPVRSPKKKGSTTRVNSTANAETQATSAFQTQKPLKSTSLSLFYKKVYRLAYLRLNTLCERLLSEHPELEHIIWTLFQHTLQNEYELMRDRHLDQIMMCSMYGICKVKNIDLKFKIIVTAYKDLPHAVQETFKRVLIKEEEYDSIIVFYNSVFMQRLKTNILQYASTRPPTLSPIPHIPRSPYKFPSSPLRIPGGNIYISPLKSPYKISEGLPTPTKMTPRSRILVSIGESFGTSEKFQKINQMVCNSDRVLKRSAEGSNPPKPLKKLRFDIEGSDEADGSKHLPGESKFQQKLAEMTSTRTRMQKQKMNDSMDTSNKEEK
In words: Binding inhibition assay in vitro: immune precipitation of RBG protein from Hela lysate with radiolabelled HPV-16 E7 (Example 2). The note with it: for inhibition of the binding of the HPV E7 protein to the RBG protein (in words): summary statement. As for the experimental part:
Peptide A, Peptide B, and Acetyl-GRP 20-27 were assayed for their abilities to inhibit the binding of the HPV-16 E7 protein to the RBG protein. Binding inhibition assays were carried out in vitro using a modification of the procedure described by N. Dyson et al., Science 243: 934-936 1989. Whole cell lysates of Hela cells were used as a source of human RBG protein. Rabbit reticulocyte cell free lysates that permit transcription and translation of exogenously added DNAs served as a source of HPV-16 E7 protein. The HPV-16 E7 gene was added to the rabbit reticulocyte lysate as a recombinant DNA clone under the control of a T7 promoter and incubated for 60 minutes at 30°C in the presence of radiolabeled methionine to allow transcription of the HPV-16 E7 gene and translation into E7 protein that contained radiolabeled methionine. The Hela cell and rabbit reticulocyte lysates were then mixed and incubated at 4°C for 90 minutes. After further manipulations a murine antibody against the RBG protein was added and incubated at 4°C for 60 minutes. Next, a rabbit anti-mouse IgG antibody and protein A sepharose was added to the reaction mixture in order to immune precipitate the RBG protein. At the same time, the E7 protein that was bound to the RBG protein was also precipitated. After an additional 60 minute incubation at 4°C the precipitated proteins were isolated by centrifugation and examined by polyacrylamide gel electrophoresis. Following electrophoresis, the polyacrylamide gel was dried and exposed to x-ray film. […] This biochemical protocol yields a quantitative estimate of the binding of HPV-16 E7 protein to the RBG protein in vitro.
These biochemical reactions can be run with or without added synthetic peptides to evaluate the effects of various concentrations of peptides on the binding of the HPV E7 protein to the RBG protein. In our studies, the addition of peptide A to these reaction mixtures at concentrations of 40 uM, 20 uM, or 2 uM caused a reduction in HPV-16 E7 protein binding to the RBG protein of 90%, 90% and 60% respectively. Addition of Peptide B or Acetyl-GRP 20-27 to the reaction mixture at concentrations up to 60 uM had no effect on HPV-16 E7 protein binding to the RBG protein.

The target in assay [2] is T2, RBG Protein/E7 (Homo sapiens, UniProt P06400).
T2 sequence (P06400 1-928): T1 sequence (P06400 1-928)
In words: In vitro solution assay for E7/RBG protein complex formation (immunoprecipitation, T24 cell lysates). The class given is binding. On the set-up: Cell lysates used as a source of RBG protein were prepared from human T24 bladder carcinoma cells; endogenous in cells; host or cells: human T24 bladder carcinoma cell lysate. As for the experimental part: (§1) An in vitro solution assay used for the detection of complex formation between E7 protein and p105-RB has been described by Dyson, et al (30). Cell lysates used as a source of RBG protein were prepared from human T24 bladder carcinoma cells as described (30). C36 and the control antibody Pb416 are monoclonal antibodies directed against RGB protein and SV40 large T protein, respectively. These antibodies were a generous gift from E. Harlow (Cold Spring Harbor Laboratories, Cold Spring Harbor, NY). Immunoprecipitates of E7/RBG protein binding reactions containing serially diluted peptide antagonists were dissolved in 35 µl gel loading buffer (30). Five µl was counted directly in Right Safe (Beckman, Palo Alto, CA.) scintillation cocktail and 25 µl was subjected to sodium dodecyl sulphate poly-acrylamide gel electrophoresis. Gels were dried and exposed to Kodak X-AR film at -70 °C overnight. In order to more rapidly assay large numbers of samples and more easily quantitate the binding results, we developed a plate binding assay for the detection of E7/RBG protein association. Purified recombinant E7 was resuspended in 0.1 M sodium carbonate, pH 9.5, at 1 ng/µl. Fifty microliters of this solution was placed into each well of a polyvinyl chloride microtiter plate (COSTAR 2596, Cambridge, MA.). The plate was gently agitated for 18 hours at 4 °C. The E7 solution was aspirated off and 100 µl of plate blocking buffer (PBB) [50mM Hepes 7.0, 250 mM sodium chloride, 0.1% NP4O, 0.5% (w/v) pigskin gelatin, and 0.02% sodium azide] was added per well. The buffer was removed and the plate was washed three times in the above buffer without the gelatin (PB). Five femtomoles of ³⁵S-methionine (Amersham 1100 Ci/mmole, Arlington Heights, IL.) labeled RBG protein prepared in a rabbit reticulocyte lysate was diluted in PB buffer containing various peptide antagonists to a final volume of 50 µl and added to the E7 treated plate. The plate was again incubated at 4 °C with agitation for 1 hour after which the solution was aspirated and each well washed five times with PB. The top of the plate was removed using a hot wire cutting apparatus (D. Lee, Sunnyvale, CA). Each well was placed in 3 ml of Ready Safe scintillation cocktail (Beckman, Palo Alto, CA.) and counted for 1 minute.
(§2) IC₅₀ values represent the average of at least two experiments in which each concentration of inhibitor was tested in triplicate. The variation between experiments was less than 10%. The 50% inhibition concentrations are micromolar. ND = not determined.

Assay [3] has as its target T2, RBG Protein/E7. In words: Plate binding assay for E7/RBG protein association (E7-coated plate, 35S-labelled RBG protein). On the set-up: made in house; host or cells: rabbit reticulocyte lysate (RB, in vitro translation). The method, then:
as §1, §2

[4] abbreviates: average of at least two experiments, triplicate, read-out: SOLUTION ASSAY RBG Protein/E7 IC₅₀.
[5] abbreviates: average of at least two experiments, triplicate, read-out: PLATE ASSAY RBG Protein/E7 IC₅₀.

Non-standard residues stand in square brackets, D forms with d. Residues, ends and D or L forms follow the SMILES beside them. No end group written: not given here. *: point of attachment. Abu = CC[C@H](N)C(=O)O; Acm = CC(=O)NC*

As for `CSCC[C@H](NC(=O)[C@H](CC(C)C)NC(=O)[C@H](Cc1c[nH]cn1)NC(=O)CNC(=O)[C@@H](NC(=O)[C@H](C)NC(=O)[C@H](Cc1c[nH]c2ccccc12)NC(=O)[C@H](Cc1c[nH]cn1)NC(C)=O)C(C)C)C(N)=O` [Acetyl-GRP 20-27, reference compound], the “effect on HPV-16 E7 protein binding to the RBG protein” value in assay [1] (concentrations up to 60 uM) is recorded as “no effect”. Further, in assay [1], the “inhibition of the binding of the HPV E7 protein to the RBG protein (in words)” value was “can not inhibit”. In the case of `CC[C@H](NC(=O)[C@H](Cc1ccc(O)cc1)NC(=O)[C@H](CC(C)C)NC(=O)[C@H](CC(=O)O)NC(=O)[C@@H](N)[C@@H](C)O)C(=O)N[C@@H](Cc1ccc(O)cc1)C(=O)N[C@@H](CCC(=O)O)C(=O)N[C@@H](CCC(N)=O)C(=O)N[C@@H](CC(C)C)C(=O)N[C@@H](CC(N)=O)C(=O)N[C@@H](CC(=O)O)C(=O)N[C@@H](CO)C(=O)N[C@@H](CO)C(N)=O` [Peptide 17, [ABU²⁴]-E7-(20-32)-AMIDE] (H-TDLY[Abu]YEQLNDSS-NH2), the IC50 on RBG Protein/E7 [2] (setting [4]) amounted to 20 µM. `CC(=O)NCSC[C@H](NC(=O)[C@H](Cc1ccc(O)cc1)NC(=O)[C@H](CC(C)C)NC(=O)[C@H](CC(=O)O)NC(=O)[C@@H](N)[C@@H](C)O)C(=O)N[C@@H](Cc1ccc(O)cc1)C(=O)N[C@@H](CCC(=O)O)C(=O)N[C@@H](CCC(N)=O)C(=O)N[C@@H](CC(C)C)C(=O)N[C@@H](CC(N)=O)C(=O)N[C@@H](CC(=O)O)C(=O)N[C@@H](CO)C(=O)N[C@@H](CO)C(N)=O` [Peptide 18, [ACM²⁴]-E7-(20-32)-AMIDE] (H-TDLYC(Acm)YEQLNDSS-NH2) came in with an IC50 at RBG Protein/E7 [2] of over 100 µM. For “Ac-DLYCYEQLN-NH2 [Peptide 14, N-Ac-E7-(21-29)-AMIDE]”, the IC50 at RBG Protein/E7 [3] is 0.04 µM; on RBG Protein/E7 [2], 1 µM. “Ac-LYCYEQLNDSS-NH2 [Peptide 15, N-Ac-E7-(22-32)-AMIDE]”: the IC50 stood at 25 µM at RBG Protein/E7 [3] (setting [5]) and 10 µM on RBG Protein/E7 [2] (setting [4]).

“Ac-LYCYEQLNDSS-NH2 [Peptide C, Ac-Leu-Tyr-Cys-Tyr-Glu-Gln-Leu-Asn-Asp-Ser-Ser-NH₂]”: the “concentration at which HPV-16 E7 protein binding to the RBG protein was inhibited” value in assay [1] (concentrations as low as) is at most 1 µM. As to “Ac-TDLYCYEQLN [Peptide 12, N-Ac-E7-(20-29)-ACID]”, the IC50 at RBG Protein/E7 [3] was 0.06 µM. On to “Ac-TDLYCYEQLN-NH2 [Peptide 13, N-Ac-E7-(20-29)-AMIDE]”, for which, on RBG Protein/E7 [3], the IC50 came out at 0.08 µM.

For “DLYCYEQLNDSS-NH2 [Peptide 10, E7-(21-32)-AMIDE]”, the IC50 is 11.4 µM on RBG Protein/E7 [3] and 20 µM on RBG Protein/E7 [2].

Regarding “E7-(14-29)-AMIDE (DLQPETTDLYCYEQLN-NH2; UniProt P03129 14-29, looked up, fragment) [Peptide 7]”, the IC50 with RBG Protein/E7 [3] (setting [5]) turned out to be 0.08 µM. As to “E7-(18-29)-AMIDE (ETTDLYCYEQLN-NH2; UniProt P03129 18-29, looked up, fragment) [Peptide 8]”, the IC50 was 0.06 µM with RBG Protein/E7 [3] (setting [5]) and 0.4 µM in the assay with RBG Protein/E7 [2] (setting [4]). In the same order, the values of “TDLFCYEQLN-NH2 [Peptide 19, [Phe²³]-E7-(20-29)-AMIDE]” are 0.6 µM and 1 µM. In the same order, the values of “TDLYCFEQLN-NH2 [Peptide 20, [Phe²⁵]-E7-(20-29)-AMIDE]” are over 50 µM and 15 µM.

For “TDLYCYE-NH2 [Peptide 6, E7-(20-26)-AMIDE]”, the IC50 at RBG Protein/E7 [3] (setting [5]) was 3.3 µM; at RBG Protein/E7 [2] (setting [4]), 100 µM. “TDLYCYENLND-NH2 [Peptide 23, [Asn²⁷]-E7-(20-30)-AMIDE]”: the IC50 on RBG Protein/E7 [2] (setting [4]) turned out to be 1 µM. Turning to “TDLYCYEQ-NH2 [Peptide 5, [Gln27]]-E7-(20-27)-AMIDE]”, the IC50 on RBG Protein/E7 [3] (setting [5]) stood at 9.1 µM; at RBG Protein/E7 [2] (setting [4]) it was 50 µM. On to “TDLYCYEQL-NH2 [Peptide 4, E7-(20-28)-AMIDE]”, for which the IC50 on RBG Protein/E7 [3] (setting [5]) is 0.7 µM; at RBG Protein/E7 [2] (setting [4]) it was 5 µM. In the case of “TDLYCYEQLN [Peptide 11, E7-(20-29)-ACID]”, the IC50 at RBG Protein/E7 [3] came to 0.08 µM. “TDLYCYEQLN-NH2 [Peptide 9, E7-(20-29)-AMIDE]”: the values for the IC50 on RBG Protein/E7 [3] and against RBG Protein/E7 [2] were 0.09 µM and 1 µM, respectively.

Consider “TDLYCYEQLND-NH2 [Peptide 2, E7-(20-30)-AMIDE]”, for which the IC50 stood at 0.08 µM at RBG Protein/E7 [3] and 1 µM against RBG Protein/E7 [2]. In the same order, the values of “TDLYCYEQLNDSS-NH2 [Peptide 1, E7-(20-32)-AMIDE]” are 0.05 µM and 1 µM. Consider “TDLYCYEQLNDSS-NH2 [Peptide A, Thr-Asp-Leu-Tyr-Cys-Tyr-Glu-Gln-Leu-Asn-Asp-Ser-Ser-NH₂]”, for which the “reduction in HPV-16 E7 protein binding to the RBG protein” value in assay [1] (peptide at 2 uM) amounted to 60%; in assay [1] (peptide at 20 uM), 90%; in assay [1] (peptide at 40 uM), 90%. Moreover, in assay [1], the “inhibition of the binding of the HPV E7 protein to the RBG protein (in words)” value is “inhibited”. Turning to “TDLYCYQQL-NH2 [Peptide 21, [Gln²⁶]-E7-(20-28)-AMIDE]”, at RBG Protein/E7 [2] (setting [4]), the IC50 is over 100 µM. On the same count and under the same terms, next, “TDLYSYEQLNDSS-NH2 [Peptide 16, [Ser²⁴]-E7-(20-32)-AMIDE]”: 40 µM; “TNLYCYEQL-NH2 [Peptide 22, [Asn²¹]-E7-(20-28)-AMIDE]”: over 100 µM.
